Results on 15 molecules are retold here after patent US9150566B2, “2-(1,2,3-triazol-2-yl)benzamide and 3-(1,2,3-triazol-2-YL)picolinamide derivatives as orexin receptor antagonists” (ACTELION PHARMACEUTICALS LTD., priority 2011, dated 2015).

In one series the test system is rodents. The note with it: cited from earlier work.
The next series has as its target human orexin-1 receptor (Homo sapiens (Human), UniProt O43613). The series is described as follows: In vitro intracellular calcium measurements (FLIPR), antagonistic activity on orexin-1 receptor. The series is classed as cell-based. The method in brief: (§1)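 CHO cells expressing human orexin-1 or orexin-2 receptor were seeded overnight, preincubated with antagonist for 120 min, then stimulated with agonist in a FLIPR Tetra.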

The nature of series [1]: Measurement of brain and systemic concentration after oral administration. In kind it is in vivo. The settings on record: rat, brain, male wistar rats, oral 100 mg/kg, read-out: brain concentration [B]; for concentration at 1 h: formulated in 10% PEG400/90% MC0.5%, sampled at 1 h; for concentration at 3 h: formulated in 100% PEG400, sampled at 3 h. The method, then: Measurement of Brain and Systemic Concentration after Oral Administration:
In order to assess brain penetration, the concentration of the compound is measured in plasma ([P]), and brain ([B]), sampled 1 h or 3 h (or at different time points) following oral administration (100 mg/kg) to male wistar rats (n=3). The compounds are formulated either in 100% PEG 400 or 10% PEG400/90% MC0.5%. Samples are collected in the same animal at the same time point (+/−5 min). Blood is sampled from the vena cava caudalis into containers with EDTA as anticoagulant and centrifuged to yield plasma. Brain is sampled after cardiac perfusion of 10 mL NaCl 0.9% and homogenized into one volume of cold phosphate buffer (pH 7.4). All samples are extracted with MeOH and analyzed by LC-MS/MS. Concentrations are determined with the help of calibration curves. Inter-individual variations between the three rats were limited. Particular compounds of the present invention tested as described above gave brain concentrations ([B]) as shown in Table 16 below; wherein the compounds of Examples 11-37 and 94 were formulated in 100% PEG400 and sampled at 3 h. All other examples below were formulated in 10% PEG400/90% MC0.5% and sampled at 1 h.

Another series addresses CYP3A4 (Homo sapiens (Human), UniProt P08684). Briefly: CYP3A4 inhibition assay (human liver microsomes, testosterone 6β-hydroxylation). The settings on record: read-out: CYP3A4 IC50, 40 μM testosterone.
In a further series the target is human orexin-2 receptor (Homo sapiens (Human), UniProt O43614). The series is described as follows: In vitro intracellular calcium measurements (FLIPR), antagonistic activity on orexin-2 receptor. In kind it is cell-based. The note with it: read-out: IC50 OX2. The method in brief:
as §1

Series [2] relates to rat. The note with it: rat model; cited from earlier work.
The subject of series [3] is amyloid precursor protein transgenic mice. The settings on record: after acute sleep restriction, APP transgenic mice; cited from earlier work.
Another series has as its system mouse. The settings on record: mouse model of depression, administered chronically; cited from earlier work.
Series [4] has as its system rats. The note with it: rats treated with the compound; cited from earlier work.
Series [5] has as its system rat. The note with it: cited from earlier work.
For a further series, the system named is humans. The settings on record: cited from earlier work.
The subject of series [6] is rat. The settings on record: rat fear-potentiated startle paradigm; cited from earlier work.
The next series deals with fasted hungry rats. The settings on record: fasted hungry rats exposed to food odors; cited from earlier work.
Series [7] concerns rats. The note with it: cited from earlier work.
The mark [8] stands for this setting: CHO cells expressing human orexin-1 receptor, FLIPR, 3 nM orexin-A agonist, 120 min antagonist incubation, geometric mean if determined several times, read-out: IC50 OX1.
The mark [9] stands for this setting: CHO cells expressing human orexin-2 receptor, FLIPR, 3 nM orexin-A agonist, 120 min antagonist incubation, geometric mean if determined several times.

Structures are written as SMILES. pIC50: −log10 of the molar value. Like-named read-outs stand apart in the source and are kept apart here.

human orexin-2 receptor, sequence (O43614 whole entry): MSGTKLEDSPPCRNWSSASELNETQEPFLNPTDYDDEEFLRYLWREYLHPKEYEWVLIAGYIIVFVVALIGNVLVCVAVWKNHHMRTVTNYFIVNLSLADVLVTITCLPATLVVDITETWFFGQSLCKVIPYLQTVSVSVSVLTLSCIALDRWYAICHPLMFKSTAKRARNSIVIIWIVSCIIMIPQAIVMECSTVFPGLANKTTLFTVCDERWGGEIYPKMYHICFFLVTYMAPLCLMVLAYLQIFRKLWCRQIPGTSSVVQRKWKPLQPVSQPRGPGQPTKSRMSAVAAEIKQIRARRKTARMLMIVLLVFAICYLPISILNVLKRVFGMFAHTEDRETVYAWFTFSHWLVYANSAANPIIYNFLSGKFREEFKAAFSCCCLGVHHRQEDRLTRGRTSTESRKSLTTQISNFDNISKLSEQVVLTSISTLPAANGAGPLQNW
CYP3A4, sequence (P08684 whole entry): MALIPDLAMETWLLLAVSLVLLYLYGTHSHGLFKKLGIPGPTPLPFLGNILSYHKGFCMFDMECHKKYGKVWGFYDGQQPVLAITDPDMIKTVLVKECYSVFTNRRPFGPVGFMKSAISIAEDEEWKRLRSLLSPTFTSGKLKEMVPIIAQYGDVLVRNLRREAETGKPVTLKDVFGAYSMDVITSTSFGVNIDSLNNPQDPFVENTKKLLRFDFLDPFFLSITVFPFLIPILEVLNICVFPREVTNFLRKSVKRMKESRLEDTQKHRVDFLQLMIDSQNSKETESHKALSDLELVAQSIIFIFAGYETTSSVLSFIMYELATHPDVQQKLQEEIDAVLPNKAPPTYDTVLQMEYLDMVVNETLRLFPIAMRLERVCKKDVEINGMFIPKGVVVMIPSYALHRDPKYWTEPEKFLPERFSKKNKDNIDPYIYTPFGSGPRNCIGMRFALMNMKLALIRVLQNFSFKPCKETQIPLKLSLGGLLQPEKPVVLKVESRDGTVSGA
human orexin-1 receptor, sequence (O43613 whole entry): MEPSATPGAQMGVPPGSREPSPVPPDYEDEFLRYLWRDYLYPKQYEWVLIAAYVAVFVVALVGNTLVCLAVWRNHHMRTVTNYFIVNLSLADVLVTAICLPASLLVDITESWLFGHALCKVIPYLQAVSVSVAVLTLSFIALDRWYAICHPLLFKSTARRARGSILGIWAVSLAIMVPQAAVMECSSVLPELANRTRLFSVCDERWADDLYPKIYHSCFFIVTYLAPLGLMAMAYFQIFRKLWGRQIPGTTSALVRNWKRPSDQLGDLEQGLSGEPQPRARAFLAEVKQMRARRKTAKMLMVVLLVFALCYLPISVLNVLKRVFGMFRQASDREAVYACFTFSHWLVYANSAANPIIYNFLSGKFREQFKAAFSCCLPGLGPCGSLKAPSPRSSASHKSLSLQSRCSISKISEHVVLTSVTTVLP

`Cn1c(SCC(=O)N2CCC[C@H]2C(=O)Nc2ccccc2-c2ccccc2)nc2ccccc21` [N-biphenyl-2-yl-1-{[(1-methyl-1H-benzimidazol-2-yl)sulfanyl]acetyl}-L-prolinamide]: in the series with rodents, the “behavioral and molecular changes induced by repeated amphetamine administration” value is “reduced behavioral (locomotor sensitization) and molecular (transcriptional responses) changes induced by repeated amphetamine administration”; the “nicotine-reinstatement for a conditioned reinforcer” value is recorded as “inhibited nicotine-reinstatement for a conditioned reinforcer”.
Take `C[C@@H]1CN(C(=O)c2ccccc2-n2nccn2)[C@H](Cc2cc(-n3nccn3)ccc2F)CO1` [Example 116, [(2R,5R)-5-(2-Fluoro-5-[1,2,3]triazol-2-yl-benzyl)-2-methyl-morpholin-4-yl]-(2-[1,2,3]triazol-2-yl-phenyl)-methanone]: the negative-log IC50 (pIC50) is 7.68 on human orexin-1 receptor (setting [8]), 4.68 at CYP3A4 and 6.05 at human orexin-2 receptor (setting [9]). For the same molecule, the concentration at 1 h in series [1] amounted to 5930 ng/g.
`O=C(c1ccc(Cl)cc1-n1nccn1)N1CCOC[C@H]1Cc1cccc(-n2nccn2)c1` [Example 77, (4-Chloro-2-[1,2,3]triazol-2-yl-phenyl)-[(R)-3-(3-[1,2,3]triazol-2-yl-benzyl)-morpholin-4-yl]-methanone]: the figures for the pIC50 on human orexin-1 receptor (setting [8]), on CYP3A4 and at human orexin-2 receptor (setting [9]) were 9.00, 4.80 and 7.02, respectively. Also, the concentration at 1 h in [1] was determined as 1610 ng/g.
Turning to `Cc1ccc(C(=O)N2CCOC[C@H]2Cc2cccc(-n3nccn3)c2)c(-n2nccn2)c1C` [Example 92, (3,4-Dimethyl-2-[1,2,3]triazol-2-yl-phenyl)-[(R)-3-(3-[1,2,3]triazol-2-yl-benzyl)-morpholin-4-yl]-methanone], the pIC50 on human orexin-1 receptor (read-out: IC50 OX1) was 8.52; on CYP3A4, 4.36; at human orexin-2 receptor, 5.58. Moreover, the concentration at 1 h in [1] turned out to be 1970 ng/g.
On to `Cc1cc(C(=O)N2CCOC[C@H]2Cc2cccc(-n3nccn3)c2)c(-n2nccn2)cc1C` [Example 35, (4,5-Dimethyl-2-[1,2,3]triazol-2-yl-phenyl)-[(R)-3-(3-[1,2,3]triazol-2-yl-benzyl)-morpholin-4-yl]-methanone], for which the results for the pIC50 on human orexin-1 receptor (setting [8]), at CYP3A4 and on human orexin-2 receptor (setting [9]) were 9.00, 4.70 and 7.60, respectively. The concentration at 3 h in series [1] was determined as 59 ng/g.
Turning to `Cc1ccc(C(=O)N2CCOC[C@H]2Cc2cc(-n3nccn3)ccc2Cl)c(-n2nccn2)c1` [Example 120, [(R)-3-(2-Chloro-5-[1,2,3]triazol-2-yl-benzyl)-morpholin-4-yl]-(4-methyl-2-[1,2,3]triazol-2-yl-phenyl)-methanone], the pIC50 on human orexin-1 receptor (read-out: IC50 OX1) was 8.52; at CYP3A4, 4.72; at human orexin-2 receptor, 6.27. Besides, the concentration at 1 h in [1] stood at 5130 ng/g.
Take `C[C@@H]1CN(C(=O)c2ccccc2-n2nccn2)[C@H](Cc2cccc(-n3nccn3)c2)CO1` [Example 100, [(2R,5R)-2-Methyl-5-(3-[1,2,3]triazol-2-yl-benzyl)-morpholin-4-yl]-(2-[1,2,3]triazol-2-yl-phenyl)-methanone]: the pIC50 at human orexin-1 receptor (setting [8]) is 8.22; at CYP3A4, 4.89; on human orexin-2 receptor (setting [9]), 6.54. Further, in series [1], the concentration at 1 h is 529 ng/g.
Take `Cc1cccc(C(=O)N2CCOC[C@H]2Cc2cccc(-n3nccn3)c2)c1-n1nccn1` [Example 64, (3-Methyl-2-[1,2,3]triazol-2-yl-phenyl)-[(R)-3-(3-[1,2,3]triazol-2-yl-benzyl)-morpholin-4-yl]-methanone]: the pIC50 at human orexin-1 receptor was 8.22; at CYP3A4, 4.48; at human orexin-2 receptor (setting [9]), 6.11. The concentration at 1 h in series [1] was found to be 2370 ng/g.
With `O=C(c1ccccc1-n1nccn1)N1CCOC[C@H]1Cc1cccc(-n2nccn2)c1` [Example 12, [(R)-3-(3-[1,2,3]Triazol-2-yl-benzyl)-morpholin-4-yl]-(2-[1,2,3]triazol-2-yl-phenyl)-methanone], the negative logarithm of the IC50 (pIC50) is 7.77 at human orexin-1 receptor (setting [8]), 4.52 at CYP3A4 and 5.91 at human orexin-2 receptor (setting [9]). Besides, the concentration at 3 h in [1] came out at 11900 ng/g.
For the molecule `O=C(c1ccc(Cl)cc1-n1nccn1)N1CCOC[C@H]1Cc1cc(-n2nccn2)ccc1F` [Example 130, (4-Chloro-2-[1,2,3]triazol-2-yl-phenyl)-[(R)-3-(2-fluoro-5-[1,2,3]triazol-2-yl-benzyl)-morpholin-4-yl]-methanone], the values for the pIC50 at human orexin-1 receptor (setting [8]), on CYP3A4 and on human orexin-2 receptor (setting [9]) were 8.52, 4.70 and 6.72, respectively. Besides, the concentration at 1 h in [1] was 5830 ng/g.
For `Cc1ccc(-n2nccn2)c(C(=O)N2CCOC[C@H]2Cc2cccc(-n3nccn3)c2)c1F` [Example 29, (2-Fluoro-3-methyl-6-[1,2,3]triazol-2-yl-phenyl)-[(R)-3-(3-[1,2,3]triazol-2-yl-benzyl)-morpholin-4-yl]-methanone], the pIC50 on human orexin-1 receptor (setting [8]) was 8.40; on CYP3A4, 4.41; on human orexin-2 receptor (setting [9]), 6.48. In addition, the concentration at 3 h in series [1] was 423 ng/g.
The matching figures for `Cc1ccc(C(=O)N2CCOC[C@H]2Cc2cc(-n3nccn3)ccc2F)c(-n2nccn2)c1C` [Example 94, (3,4-Dimethyl-2-[1,2,3]triazol-2-yl-phenyl)-[(R)-3-(2-fluoro-5-[1,2,3]triazol-2-yl-benzyl)-morpholin-4-yl]-methanone]: 8.22, 4.52, 5.45 and 654 ng/g.
As to `CNC(=O)[C@@H](c1ccccc1)N1CCc2cc(OC)c(OC)cc2[C@@H]1CCc1ccc(C(F)(F)F)cc1` [(2R)-2-{(1S)-6,7-dimethoxy-1-[2-(4-trifluoromethyl-phenyl)-ethyl]-3,4-dihydro-1H-isoquinolin-2-yl}-N-methyl-2-phenyl-acetamide], the “pharmacological activity, nicotine self-administration” value in the series with rat [2] is “displayed pharmacological activity”. Moreover, the “brain levels of amyloid-beta and plaque deposition” value in [3] was “decreased brain levels of amyloid-beta (Aβ) as well as AO plaque deposition”. Besides, the antidepressant-like activity result with mouse is “induce antidepressant-like activity”. In addition, in the series with rats [4], the learning and memory result was “intact declarative and non-declarative learning and memory”. Besides, in the series on rat [5], the “alertness (active wake and locomotion)” value was “decrease alertness”; the “time spent in REM and NREM sleep” value is “dose-dependently increase the time spent in both REM and NREM sleep”. Also, the “clinical efficacy, primary insomnia” value in the series with humans is recorded as “showed clinical efficacy”. For the same molecule, the “activity in animal model of conditioned fear” value in the series with rat [6] is recorded as “active”. In addition, in the series with fasted hungry rats, the “natural activation induced by orexin A” value was “attenuate the natural activation induced by orexin A”. Besides, the “cardiovascular responses to conditioned fear and novelty exposure” value in the series with rats [7] is “attenuated cardiovascular responses to conditioned fear and novelty exposure”.
On to `Cc1ccc(C(=O)N2CCOC[C@H]2Cc2cccc(-n3nccn3)c2)c(-n2nccn2)c1` [Example 27, (4-Methyl-2-[1,2,3]triazol-2-yl-phenyl)-[(R)-3-(3-[1,2,3]triazol-2-yl-benzyl)-morpholin-4-yl]-methanone], for which the pIC50 on human orexin-1 receptor (read-out: IC50 OX1) was 8.70; on CYP3A4, 4.51; on human orexin-2 receptor, 6.56. Further, the concentration at 3 h in series [1] stood at 5500 ng/g.
As for `COc1cc(C(=O)N2CCOC[C@H]2Cc2cccc(-n3nccn3)c2)c(-n2nccn2)cc1C` [Example 37, (5-Methoxy-4-methyl-2-[1,2,3]triazol-2-yl-phenyl)-[(R)-3-(3-[1,2,3]triazol-2-yl-benzyl)-morpholin-4-yl]-methanone], the pIC50 on human orexin-1 receptor (setting [8]) is 8.40; on CYP3A4 it was 4.77; on human orexin-2 receptor (setting [9]) it was 6.68. For the same molecule, the concentration at 3 h in [1] amounted to 881 ng/g.
